{"source": "patent US20060217400A1", "about": "“Triazolopyrimidines, methods for the production thereof, use thereof for controlling harmful fungi, and substances containing said triazolopyrimidines” (priority 2002, published 2006)", "tested_on": "Alternaria solani", "test": "Activity against early blight of tomato caused by Alternaria solani", "type": "in vivo", "details": "250 ppm, spray on tomato leaves, rated after 5 days; untreated control 80% infected", "method": "The active compounds were formulated separately as a stock solution comprising 0.25% by weight of active compound in acetone or DMSO. 1% by weight of the emulsifier Uniperol® EL (wetting agent having emulsifying and dispersing action based on ethoxylated alkylphenols) was added to this solution. The stock solutions of the active compounds were diluted with water to the stated concentration. Leaves of potted plants of the cultivar “Golden Princess” were sprayed to runoff point with an aqueous suspension having the concentration of active compound stated below. The next day, the leaves were infected with an aqueous spore suspension of Alternaria solani in 2% biomalt solution having a density of 0.17×10^6 spore/ml. The plants were then placed in a water-vapor saturated chamber at temperatures between 20 and 22° C. After 5 days, the blight on the untreated, but infected control plants had developed to such an extent that the infection could be determined visually in %."}
{"compound": "CCC(C)Cc1c(-c2c(F)cc(F)cc2F)c(C)nc2nc(OC)nn12", "note": "(stereo not shown) [I-11, 2-Methoxy-5-methyl-6-(2,4,6-trifluorophenyl)-7-(2-methylbutyl)-1,2,4-triazolo[1,5a]pyrimidine]", "values": [{"measurement": "infection of the leaves, determined visually", "result": "< 10", "unit": "%"}]}
